Literature values as cited in US7572808B2, “Triazolopyridine cannabinoid receptor 1 antagonists” (Bristol-Myers Squibb Company, priority 2005, dated 2009).
Where two headings read alike, the source gives them in different places.

Columns and labels:
[1] = human subjects, 16 week trial period, Phase IIb
[2] = chronic administration for two weeks

| SMILES | body weight [1] | body weight [2] |
| --- | --- | --- |
| Cc1c(C(=O)NN2CCCCC2)nn(-c2ccc(Cl)cc2Cl)c1-c1ccc(Cl)cc1 [SR-141716] | dose-dependently reduced body weight |  |
| Cc1c(C(=O)NN2CCCCC2)nn(-c2ccc(Cl)cc2Cl)c1-c1ccc(I)cc1 [AM-251] |  | substantial body weight reduction |
